Reference: US20220249426A1, “INHIBITORS OF THE STING PATHWAY FOR THE TREATMENT OF HIDRADENITIS SUPPURATIVA” (INSERM (INSTITUT NATIONAL DE LA SANTÉ ET DE LA RECHERCH …, priority 2019, published 2022)

How the values were obtained:
Type in all cases: cell-based, human
HS-ORS [1] = test: mRNA quantification of ISGs in HS-ORS treated with drugs targeting the IFN pathway; details: compared to ORS treated with DMSO
Procedure: FIG. 2: Outer root sheath (ORS) cells from two patients were treated with two drugs (A. Ruxolitinib B. H151) targeting the interferon (IFN) pathway. mRNA levels of MX1, IP10, IFI27 and OAS1 in ORS. HS-ORS (n=2) were treated with two drugs during 24 hours before performing mRNA quantification.
(§1) ORS cells were lysed with RLT Plus Buffer (Qiagen). The RNA was extracted using the RNeasy Plus Mini Kit (Qiagen) according to the manufacturer's protocol then converted into cDNA using the QuantiTect Reverse Transcription Kit (Qiagen) for IFNβ detection and the High-Capacity cDNA Reverse Transcription Kit (Applied Biosystems, Thermo Fisher Scientific) for the expression of other genes.
For real-time PCR analysis of the cDNA samples thus obtained, we prepared custom-made primer sets using the Brilliant II SYBR green QPCR master mix (Agilent Technologies) or Quantitect SYBR Green PCR Kit (Qiagen) according to the manufacturers' protocols. Real-time PCR was performed on a MX3000P device (Agilent). The GAPDH or OAZ1 mRNA level was used for normalization. The relative expression (ΔCt) of mRNAs of each gene was computed using GAPDH or OAZ-1 expression as the reference.
We used two drugs targeting IFN pathway. HS-ORS (n=2) were treated with drugs during 24 hours before performing mRNA quantification. Four ISGs: MX1, OAS1, IFI27 and IP10 were analyzed.

HD-ORS cells = test: IFN-β and ISG mRNA quantification after siRNA transfection of HD-ORS cells; details: compared to scramble siRNA
Text: (§2) FIG. 1: IFI16-STING pathway induces interferon (IFN) production in outer root sheath (ORS) cells from patients with hidradenitis suppurativa (HS). (A) Relative mRNA levels of IFN-β and IP10 in HS-ORS and HD-ORS cells. **P<0.01; ns, nonsignificant; Mann-Whitney rank-sum test. (B) Nonparametric Spearman correlation analysis of the expression of IFN-β genes and percentage of cells in phase S in HS-ORS cell populations. (C) Levels of IFN-β mRNA in HS-ORS (n=10) and HD-ORS (n=4) cell populations transfected with siSTING for 2 days before IFN-β mRNA quantification. (D) IFN-β mRNA levels in HS-ORS cell populations (n=3) transfected with siRNA-cGAS or siRNA-IFI16 for 2 days before IFN-β mRNA quantification. (E) DNA fiber spreading analysis of fork progression in HS-ORS cell populations (n=2) transfected with siSTING for 2 days before DNA fiber spreading. ****P<0.0001, Mann-Whitney rank-sum test. […] Quantification of phospho-IRF3 signal intensity in HS-ORS (n=7) and HD (n=5). […]
as §1, with “genes. […]” for “genes.”

HS-ORS cell populations = test: DNA fiber spreading analysis of fork progression after siSTING transfection; details: both HS-ORS cell populations (n=2); siSTING for 2 days before DNA fiber spreading
Text: as §2
DNA fiber spreading was performed as described by Jackson and Pombo (16). […] The DNA fiber images thus acquired were analyzed using MetaMorph Microscopy Automation and Image Analysis Software (Molecular Devices, San Jose, Calif.) and the results were evaluated statistically by applying the two-sided Mann-Whitney rank-sum test with GraphPad Prism software (GraphPad, La Jolla, Calif.).

HD-ORS = test: Western blot analysis of phospho-IRF3 after siRNA transfection of HD-ORS; details: compared to scramble siRNA
Text: (§3) FIG. 1: IFI16-STING pathway induces interferon (IFN) production in outer root sheath (ORS) cells from patients with hidradenitis suppurativa (HS). (A) Relative mRNA levels of IFN-β and IP10 in HS-ORS and HD-ORS cells. **P<0.01; ns, nonsignificant; Mann-Whitney rank-sum test. (B) Nonparametric Spearman correlation analysis of the expression of IFN-β genes and percentage of cells in phase S in HS-ORS cell populations. (C) Levels of IFN-β mRNA in HS-ORS (n=10) and HD-ORS (n=4) cell populations transfected with siSTING for 2 days before IFN-β mRNA quantification. (D) IFN-β mRNA levels in HS-ORS cell populations (n=3) transfected with siRNA-cGAS or siRNA-IFI16 for 2 days before IFN-β mRNA quantification. (E) DNA fiber spreading analysis of fork progression in HS-ORS cell populations (n=2) transfected with siSTING for 2 days before DNA fiber spreading. ****P<0.0001, Mann-Whitney rank-sum test. (F) Western blot analysis of the levels of phospho-IRF3 in ORS transfected with siSTING or siCtrl. Quantification of phospho-IRF3 signal intensity in HS-ORS (n=7) and HD (n=5).
(§4) The following siRNAs were used: siSTING (CUGCAUCCAUCCAUCCCGUdTdT; SEQ ID NO:1, Sigma #Hs01_00031038, Sigma, St Louis, […].), siIFI16 (L-020004-00-0005, ON-TARGETplus Human IFI16 siRNA SMARTpool, Horizon Discovery, Waterbeach, UK), and sicGAS (L-015607-02-0005, ON-TARGETplus Human MB21D1 siRNA SMARTpool, Horizon Discovery). […]

HS-ORS [2] = test: Western blot analysis (phospho-IRF3, cGAS protein) after siRNA transfection of HS-ORS; details: compared to scramble siRNA
Text: as §3, §4

HS-ORS cells = test: IFN-β and ISG mRNA quantification after siRNA transfection of HS-ORS cells; details: compared to scramble siRNA
Text: as §2
as §1, with “genes. […]” for “genes.”

[3] = first patient, ORS treated 24 hours

## CCc1ccc(NC(=O)Nc2c[nH]c3ccccc23)cc1 [H151, N-(4-Ethylphenyl)-N′-1H-indol-3-yl-urea]
HS-ORS [1]; HS-ORS (n=2), 24 hours
  levels of IFI27 transcripts: reduced levels
  levels of IP10 transcripts: reduced levels
  levels of MX1 transcripts: reduced levels
  levels of OAS1 transcripts: reduced levels
HS-ORS [1]; [3]
  levels of IFI27 transcripts: reduced levels
  levels of IP10 transcripts: reduced levels
  levels of MX1 transcripts: reduced levels
  levels of OAS1 transcripts: reduced levels

## siSTING: siRNA CUGCAUCCAUCCAUCCCGUdTdT; SEQ ID NO:1, Sigma #Hs01_00031038 (sense CUGCAUCCAUCCAUCCCGUTT; dTdT overhang, further chemistry not given here)
HD-ORS cells; HD-ORS cells, siRNA 10 μM, 2 days
  IFN-β transcript levels: not associated with a difference
HD-ORS cells; ORS from HD
  ISGs transcripts (OAS1 and IP-10): no change
HS-ORS cell populations
  IdU track length: decreased to the length observed in HD-ORS cells
HD-ORS
  IRF3 phosphorylation at Ser396 (pIRF3): no modification
HS-ORS [2]
  IRF3 phosphorylation at Ser396 (pIRF3): inhibition
HS-ORS cells; HS-ORS cells, siRNA 10 μM, 2 days
  IFN-β transcript levels: lower
HS-ORS cells; ORS from HS patients
  ISGs transcripts (OAS1 and IP-10): decrease
